Experimental data as given in publication PMC6982876, “Synthesis of Novel Benzodifuranyl; 1,3,5-Triazines; 1,3,5-Oxadiazepines; and Thiazolopyrimidines Derived from Visnaginone and Khellinone as Anti-Inflammatory and Analgesic Agents” (Molecules, 2020).
Marks after values point to notes of the source that are not given here.

Assays:
[1] = tested on: acetic acid-induced writhing in mice; assay: Acetic acid-induced writhing test (analgesic activity); type: in vivo; details: 10 mg/kg p.o., n = 5; for Writhing Number in 20 min (Mean ± SEM): acetic acid 1 h after dosing; for Analgesic Activity (% protection): writhing test
Method: The analgesic activity of the compounds was performed using the writhing test as described by Gawade et al.. Mice weight ranged from 25 to 30 g. Then, mice were divided into 18 different groups, each containing five animals. The animals fasted for 8 h before the experiment. Administration of the compounds (10 mg/kg, p.o.) was performed orally. Equal doses of diclofenac as the reference drug and saline as a negative control were also administrated orally. Writhing was induced one hour after compound administration by using 0.1 mL of 1% glacial acetic acid at a volume of 0.1 mL/10 g body weight. The number of writhing responses (stretching of the abdomen, extension of hind limbs, twisting of the trunk, and elongation of the body) observed was counted for 20 min. The protection percentile against acetic acid-induced writhing was calculated according to the following formula: (1) Analgesic activity (%) =n−n′/n×100* where n is the mean number of writhes of the control group, and n’ is the mean number of writhes of the tested compound group.

[2] = tested on: carrageenan-induced paw edema in rats; assay: Carrageenan-induced paw edema (anti-inflammatory activity); type: in vivo; details: 10 mg/kg oral; for % Change in Paw Height (Mean ± SEM): n = 5
Method: Albino rats (150–180 g) were used. The rats were divided into 11 experimental groups of five rats each. One hour after oral administration of the compounds (10 mg/kg), 0.1 mL of 1% carrageenan solution was injected in the left hind paw of each animal. Rat paw volumes were measured with a digital caliber plethysmometer (UGO Basile, Varese, Italy) used to measure inflammation height at 0, 1, 2, and 3 h after carrageenan injection. The percentage increase in inflammation in the left hind paw, in comparison to the uninjected right hind paw, was determined, calculated, and expressed as the amount of inflammation. […] The anti-inflammatory activity of the selected analgesic compounds after 3 h was expressed as percentage inhibition of edema, which was calculated according to the following equation: (2) Inhibition of edema (%) =Vcont−Vtest/Vcont×100* where V cont is the edema volume in the control group, and V test is the edema volume in the group of the screened compound.

ovine COX-1 = target: T1, ovine COX-1 (Ovis aries, UniProt P05979); assay: In vitro COX inhibitor screening assay (EIA kit, Cayman), COX-1; type: biochemical; details: mean of two determinations, enzyme kit, read-out: COX1 IC50
T1 construct: purchased Cayman Chemical, Ann Arbor, MI, USA 560131
T1 sequence (P05979 25-600): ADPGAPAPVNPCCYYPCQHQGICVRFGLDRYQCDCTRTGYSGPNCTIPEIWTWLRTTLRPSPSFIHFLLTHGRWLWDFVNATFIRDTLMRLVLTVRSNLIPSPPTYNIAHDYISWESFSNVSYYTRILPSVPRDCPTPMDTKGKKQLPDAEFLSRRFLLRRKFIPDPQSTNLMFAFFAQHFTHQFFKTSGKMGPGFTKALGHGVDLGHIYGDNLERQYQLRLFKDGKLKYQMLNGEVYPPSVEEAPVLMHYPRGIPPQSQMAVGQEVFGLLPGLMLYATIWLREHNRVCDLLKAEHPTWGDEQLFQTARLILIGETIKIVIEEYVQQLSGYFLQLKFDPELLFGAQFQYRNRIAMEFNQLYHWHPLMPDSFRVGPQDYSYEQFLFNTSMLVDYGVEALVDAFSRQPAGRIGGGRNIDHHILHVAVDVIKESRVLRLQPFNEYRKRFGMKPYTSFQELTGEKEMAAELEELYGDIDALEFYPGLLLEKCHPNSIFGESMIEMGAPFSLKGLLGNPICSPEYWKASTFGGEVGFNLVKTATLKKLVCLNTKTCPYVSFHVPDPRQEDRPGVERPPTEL
Method: (§1) Furthermore, the selectivity index for COX-2 (COX-1 IC50 / COX-2 IC50) was calculated for the compounds.

human recombinant COX-2 = target: T2, human recombinant COX-2 (Homo sapiens, UniProt P35354); assay: In vitro COX inhibitor screening assay (EIA kit, Cayman), COX-2; type: biochemical; details: for COX2 (SI) selectivity index: COX-1 IC50 / COX-2 IC50; for IC50: COX-2, mean of two determinations, enzyme kit, read-out: COX2 IC50
T2 construct: purchased Cayman Chemical, Ann Arbor, MI, USA 560131
T2 sequence (P35354 18-604): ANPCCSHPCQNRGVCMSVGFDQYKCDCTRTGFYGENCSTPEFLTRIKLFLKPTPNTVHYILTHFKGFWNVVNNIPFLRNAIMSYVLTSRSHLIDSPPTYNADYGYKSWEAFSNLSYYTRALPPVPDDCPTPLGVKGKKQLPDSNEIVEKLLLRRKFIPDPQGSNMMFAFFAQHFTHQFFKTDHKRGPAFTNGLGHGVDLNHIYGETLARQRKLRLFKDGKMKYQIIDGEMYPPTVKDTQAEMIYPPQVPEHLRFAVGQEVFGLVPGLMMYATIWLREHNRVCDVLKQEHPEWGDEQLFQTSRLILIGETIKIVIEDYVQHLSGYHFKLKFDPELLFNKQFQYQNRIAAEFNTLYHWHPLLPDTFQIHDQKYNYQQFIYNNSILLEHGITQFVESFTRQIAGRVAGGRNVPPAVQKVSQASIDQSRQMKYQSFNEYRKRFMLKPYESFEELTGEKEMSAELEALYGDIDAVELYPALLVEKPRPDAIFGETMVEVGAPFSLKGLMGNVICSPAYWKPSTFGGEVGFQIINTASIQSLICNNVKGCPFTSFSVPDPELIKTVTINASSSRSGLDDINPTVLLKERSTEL
Method: as §1

[3] = tested on: interleukin-1 beta (IL-1 β); assay: ELISA of serum interleukin-1 beta after paw edema test; type: in vivo, rats; details: rat serum at the end of the paw edema test, mean ± SEM, n = 5
Method: IL1 is one of the important inflammatory mediators and is used to confirm the anti-inflammatory activities of new anti-inflammatory compounds. At the end of the paw edema test, blood samples were collected from the orbital axis of the eye under light ether anesthesia. Sera were separated after centrifugation of blood at 5000 rpm for 15 min; the sera were stored at –80 °C until the ELISA assay was performed according to the manufacturer instructions.

| Structure (SMILES) | melting point [°C] | Writhing Number in 20 min (Mean ± SEM) [1] | Analgesic Activity (% protection) [1] | % Change in Paw Height (Mean ± SEM) ([2]; 1 hr after carrageenan) | % Change in Paw Height (Mean ± SEM) ([2]; 2 hr after carrageenan) | Anti-Inflammatory Activity (% Inhibition of Edema) ([2]; 3 hr after carrageenan) [%] | % Change in Paw Height (Mean ± SEM) ([2]; 3 hr after carrageenan) | IC50 (ovine COX-1) [µM] | COX2 (SI) selectivity index (human recombinant COX-2) | IC50 (human recombinant COX-2) [µM] | IL-1 β Concentration [3] |
| --- | --- | --- | --- | --- | --- | --- | --- | --- | --- | --- | --- |
| COc1c2occc2c(OC)c2c(C)c(C3=NC4=CC(=O)N5C(=O)CSC5N4C(=O)CO3)oc12 (centres unmarked) [Compound 12b, 8-(4,8-dimethoxy-3-methylbenzo[1,2-b:5,4-b`]difuran-2-yl)-5H,12aH-thiazolo[2’,3’:2,3] pyrimido[6,1-d][1,3,5]oxadiazepine-3,5,11(2H,10H)-trione] | > 350 | 34 ± 1.7 ^a | 41 ± 1.10 ^a % | 0.28 ± 0.01 ^a % | 0.22 ± 0.02 ^a % | 58 | 0.25 ± 0.02 ^a % | 6.1 | 87 | 0.07 | 40 ± 0.22 ^b Pg /mL |
| COc1c2ccoc2cc2oc(C3=NC4=CC(=O)N5C(=O)C(=Cc6ccccc6)SC5N4C(=O)C(=Cc4ccccc4)O3)c(C)c12 (centres unmarked) [Compound 13a, 2,10-di(benzylidene)-8-(4-methoxy-3-methylbenzo[1,2-b:5,4-b`]difuran-2-yl)-5H,12aH-thiazolo[2’,3’:2,3]pyrimido[6,1-d][1,3,5]oxadiazepine-3,5,11(2H,10H)-trione] | > 350 | 33 ± 1.9 ^a | 42 ± 1.90 ^a % | 0.27 ± 0.02 ^a % | 0.21 ± 0.01 ^a % | 59 | 0.24 ± 0.01 ^a % | 5.79 | 90 | 0.064 | 39 ± 0.31 ^b Pg /mL |
| COc1c2ccoc2cc2oc(C3=NC4=CC(=O)N5C(=O)C(=Cc6ccc(Cl)cc6)SC5N4C(=O)C(=Cc4ccc(Cl)cc4)O3)c(C)c12 (centres unmarked) [Compound 13b, 2,10-bis(4-chlorobenzylidene)-8-(4-methoxy-3-methylbenzo[1,2-b:5,4-b`]difuran-2-yl)-5H, 12aH-thiazolo[2’,3’:2,3]pyrimido[6,1-d][1,3,5]oxadiazepine-3,5,11(2H,10H)-trione] | > 350 | 29 ± 1.5 ^a | 46 ± 1.6 ^a % | 0.23 ± 0.02 ^a % | 0.18 ± 0.01 ^a % | 63 | 0.20 ± 0.02 ^a % | 5.2 | 95 | 0.055 | 35 ± 0.28 ^b Pg /mL |
| COc1c2ccoc2cc2oc(C3=NC4=CC(=O)N5C(=O)CSC5N4C=N3)c(C)c12 (centres unmarked) [Compound 11a, 8-(4-methoxy-3-methylbenzo[1,2-b:5,4-b`]difuran-2-yl)-2-hydro-5H,11aH-thiazolo[2’,3’: 2,3]pyrimido[1,6-a][1,3,5]triazine-3,5-dione] | > 350 | 39 ± 2.1 ^a | 36 ± 0.75 ^a % | 0.30 ± 0.02 ^a % | 0.24 ± 0.01 ^a % | 55 | 0.28 ± 0.01 ^a % | 6.85 | 81 | 0.085 | 43 ± 1.15 ^b Pg /mL |
| COc1c2ccoc2cc2oc(C3=NC4=CC(=O)N5C(=O)CSC5N4C(=O)CO3)c(C)c12 (centres unmarked) [Compound 12a, 8-(4-methoxy-3-methylbenzo[1,2-b:5,4-b`]difuran-2-yl)-5H,12aH-thiazolo[2’,3’:2,3] pyrimido[6,1-d][1,3,5]oxadiazepine-3,5,11(2H,10H)-trione] | > 350 | 35 ± 1.2 ^a | 40 ± 1.50 ^a % | 0.28 ± 0.02 ^a % | 0.23 ± 0.01 ^a % | 57 | 0.26 ± 0.01 ^a % | 6.4 | 85 | 0.075 | 41 ± 0.85 ^b Pg /mL |
| COc1c2occc2c(OC)c2c(C)c(C3=NC4=CC(=O)N5C(=O)CSC5N4C=N3)oc12 (centres unmarked) [Compound 11b, 8-(4,8-dimethoxy-3-methylbenzo[1,2-b:5,4-b`]difuran-2-yl)-2-hydro-5H,11aH-thiazolo [2’, 3’:2,3]pyrimido[1,6-a][1,3,5]triazine-3,5-dione] | > 350 | 37 ± 2.3 ^a | 38 ± 0.80 ^a % | 0.29 ± 0.01 ^a % | 0.23 ± 0.01 ^a % | 56 | 0.27 ± 0.02 ^a % | 6.6 | 83 | 0.08 | 42 ± 0.98 ^b Pg /mL |
| COc1ccc(C=C2OC(c3oc4c(OC)c5occc5c(OC)c4c3C)=NC3=CC(=O)N4C(=O)C(=Cc5ccc(OC)cc5)SC4N3C2=O)cc1 (centres unmarked) [Compound 13f, 8-(4,8-dimethoxy-3-methylbenzo[1,2-b:5,4-b`]difuran-2-yl)-2,10-bis(4-methoxybenzylidene)-5H,12aH-thiazolo[2’,3’:2,3]pyrimido[6,1-d][1,3,5]oxadiazepine-3,5,11(2H,10H)-trione] | > 350 | 30 ± 1.8 ^a | 45 ± 0.95 ^a % | 0.24 ± 0.02 ^a % | 0.18 ± 0.02 ^a % | 62 | 0.21 ± 0.01 ^a % | 5.45 | 94 | 0.058 | 36 ± 0.25 ^b Pg /mL |
